# From patent US8598195B2, “Peptidomimetic compounds” (priority 2008, dated 2013)
# Biological target: Recombinant human PAI-1 (Homo sapiens, UniProt P05121)
# Test: Plasma clot lysis assay for testing of PAI-1 inhibitors
# Assay type: biochemical
# Details: clot lysis in platelet-poor plasma (50%), PAI-1 10-13 ng/mL, t-PA 34 ng/mL, 37° C.; IC50 = concentration at which a halving of the clot lysis time was reached
# Method: Plasma Clot Lysis Assay for Testing of PAI-1 Inhibitors
# CaCl2, p.a. Stock solution 0.1 M in water.
# PAI-1 inhibitors dissolved in 100% DMSO.
# Clot Lysis in Platelet-Poor Plasma
# Blood from healthy fat-fasting volunteers was collected into 0.13 M trisodium citrate, 9 parts blood to 1 part anticoagulant. The tubes were centrifuged at 2000×g, 20 min, at RT. The supernatant, ie, the platelet poor plasma was pooled, aliquoted and frozen at −85° C. until used. At the day of experiment the plasma was thawed in a water bath and temperated to 37° C. All other constituents, except t-PA, were prewarmed to 37° C. To each well on a microtiter plate, 25 μL CaCl2, 25 μL PAI-1 or 25 μL PAI-1 vehicle, 20 μL saline and 5 μL drug or 5 μL vehicle (100% DMSO) were added. Plasma was mixed with cold t-PA solution in the relation 4 parts plasma with 1 part t-PA, just before adding 125 μL of this mixture to each well. The final concentration was 12.5 mM for CaCl2, 10-13 ng/mL for PAI-1, 34 ng/mL for t-PA, and the compounds were tested at a final concentration range 0.1 nM to 0.25 mM. The final plasma concentration was 50%, as a result of the different additives. The plate, covered with a plastic lid, was placed in a Microplate reader (Molecular Devices, US) and gently shaken. The change in turbidity was immediately monitored as a change in absorbance at 405 nm at 37° C. Data points were collected at intervals of 2 min, during a period of 10 h. After finished reading, the absorbance data were transformed into files containing the time and absorbance values for each well. The clot longevity, ie, the time the clot exists, was determined as the time between clot formation, ie, positive Vmax, and clot lysis, ie, negative Vmax. The effect of the drugs, ie, shortening of the longevity for the clot, was expressed as the concentration at which a halving of the clot lysis time was reached, the IC50 (pIC50=−log IC50). Control clot lysis time, set to 100%, was determined in the presence of PAI-1, and the maximal effect, ie, the shortest lysis time that can be reached under defined conditions in this system, in the absence of PAI-1 was set to 0%.
# Compounds having a pIC50 higher than 4 were considered as being active.
# Chain of Recombinant human PAI-1 (P05121 24-402): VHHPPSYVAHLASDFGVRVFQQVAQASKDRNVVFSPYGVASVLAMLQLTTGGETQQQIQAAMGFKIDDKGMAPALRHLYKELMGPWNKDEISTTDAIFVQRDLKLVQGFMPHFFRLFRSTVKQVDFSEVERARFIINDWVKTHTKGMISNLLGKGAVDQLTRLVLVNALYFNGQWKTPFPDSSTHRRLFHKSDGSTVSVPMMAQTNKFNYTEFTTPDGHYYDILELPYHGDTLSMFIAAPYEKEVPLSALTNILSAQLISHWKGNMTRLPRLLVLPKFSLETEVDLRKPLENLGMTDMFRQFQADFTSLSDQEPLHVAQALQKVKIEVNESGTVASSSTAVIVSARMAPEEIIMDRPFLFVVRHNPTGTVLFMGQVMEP
row,Compound,IC50 [µM]
1,"CC(C)Cc1n[nH]c2c(=O)n3c(c(-c4cccc(C(F)(F)F)c4)c12)SC[C@H]3C(=O)O [Example 21, (7R)-3-isobutyl-9-oxo-4-[3-(trifluoromethyl)phenyl]-1,6,7,9-tetrahydropyrazolo[4,3-d][1,3]thiazolo[3,2-a]pyridine-7-carboxylic acid]",25.1
2,"O=C(O)[C@@H]1CSc2c(-c3cccc(C(F)(F)F)c3)c3cn[nH]c3c(=O)n21 [Example 24, (7R)-9-oxo-4-[3-(trifluoromethyl)phenyl]-1,6,7,9-tetrahydropyrazolo[4,3-d][1,3]thiazolo[3,2-a]pyridine-7-carboxylic acid]",25.1
3,"CCn1nc(CC(C)C)c2c(-c3cccc(C(F)(F)F)c3)c3n(c(=O)c21)[C@H](C(=O)O)CS3 [Example 27, (7R)-1-ethyl-3-isobutyl-9-oxo-4-[3-(trifluoromethyl)phenyl]-1,6,7,9-tetrahydropyrazolo[4,3-d][1,3]thiazolo[3,2-a]pyridine-7-carboxylic acid]",79.4
4,"CCCCCCc1n[nH]c2c(=O)n3c(c(-c4ccc(F)c(F)c4)c12)SC[C@H]3C(=O)O [Example 28, (7R)-4-(3,4-difluorophenyl)-3-hexyl-9-oxo-1,6,7,9-tetrahydropyrazolo[4,3-d][1,3]thiazolo[3,2-a]pyridine-7-carboxylic acid]",50.1

# The next lines start with the values.
row,IC50 [µM],Compound
1,20,"CCCc1n[nH]c2c(=O)n3c(c(-c4cccc(C(F)(F)F)c4)c12)SC[C@H]3C(=O)O [Example 22, (7R)-9-oxo-3-propyl-4-[3-(trifluoromethyl)phenyl]-1,6,7,9-tetrahydropyrazolo[4,3-d][1,3]thiazolo[3,2-a]pyridine-7-carboxylic acid]"
2,15.8,"CCCCCc1n[nH]c2c(=O)n3c(c(-c4cccc(C(F)(F)F)c4)c12)SC[C@H]3C(=O)O [Example 23, (7R)-9-oxo-3-pentyl-4-[3-(trifluoromethyl)phenyl]-1,6,7,9-tetrahydropyrazolo[4,3-d][1,3]thiazolo[3,2-a]pyridine-7-carboxylic acid]"
3,12.6,"CCCCCCc1n[nH]c2c(=O)n3c(c(-c4cccc(C(F)(F)F)c4)c12)SC[C@H]3C(=O)O [Example 25, (7R)-3-hexyl-9-oxo-4-[3-(trifluoromethyl)phenyl]-1,6,7,9-tetrahydropyrazolo[4,3-d][1,3]thiazolo[3,2-a]pyridine-7-carboxylic acid]"
4,6.31,"CCCCCCc1n[nH]c2c(=O)n3c(c(-c4ccc(F)c(F)c4)c12)SC[C@H]3C(=O)NS(=O)(=O)c1ccccc1 [Example 29, (7R)-4-(3,4-difluorophenyl)-3-hexyl-9-oxo-N-(phenylsulfonyl)-1,6,7,9-tetrahydropyrazolo[4,3-d][1,3]thiazolo[3,2-a]pyridine-7-carboxamide]"

# Biological target: T1, Aβ 1-40 (Homo sapiens, UniProt P05067)
# T1 construct: Lyophilized Aβ 1-40 was dissolved to 500 μM in 4 mM NaOH and divided in two parts
# Test: Aβ aggregation assay for testing of inhibition of amyloid fibril formation (Thioflavin T fluorescence)
# Assay type: biochemical
# Details: 100 μM Aβ 1-40, 5% DMSO, 37° C., 24 hours; FIG. 1
# Method: Effect of test substances on aggregation of Aβ 1-40 was measured by detecting fluorescence of added Thioflavin T (ThT). The ThT-fluorescence of Aβ 1-40 aggregated in the presence of the indicated substances was compared to the ThT-fluorescence of Aβ 1-40 aggregated in the presence of 5% DMSO.
# Aβ Aggregation Assay for Testing of Inhibition Amyloid Fibril Formation
# Lyophilized Aβ 1-40 was dissolved to 500 μM in 4 mM NaOH and divided in two parts. One part was diluted to 20 μM in PBS (50 mM phosphate buffer pH 7.4 containing 100 mM NaCl) and coated onto an ELISA 96-well plate (Costar) for 1 h at room temperature. The plate was washed in PBS to remove unbound Aβ 1-40. Substances (in DMSO) were diluted with PBS to different concentrations in the Aβ 1-40 coated ELISA plate. The second part of NaOH-solubilized Aβ 1-40 was thereafter added to each well to yield a final concentration of 100 μM Aβ 1-40 and 5% DMSO. The plate was incubated at 37° C. with agitation (600 rpm) for 24 hours to allow aggregation of Aβ 1-40.
# The Aβ-substance mix was after aggregation diluted 10 times with 25 μM Thioflavin T (ThT) in PBS. The ThT-fluorescence was detected immediately by excitation at 450 nm and emission at 482 nm. The ThT-fluorescence of Aβ 1-40 aggregated with substances was compared to the ThT-fluorescence of Aβ 1-40 aggregated in the presence of 5% DMSO.
# T1 sequence (P05067 672-711): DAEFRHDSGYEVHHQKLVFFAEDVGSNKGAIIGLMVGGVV
row,Compound,Effect on aggregation of Aβ 1-40 (ThT-fluorescence compared to 5% DMSO)
1,"CC(C)Cc1n[nH]c2c(=O)n3c(c(-c4cccc(C(F)(F)F)c4)c12)SC[C@H]3C(=O)O [Example 21, (7R)-3-isobutyl-9-oxo-4-[3-(trifluoromethyl)phenyl]-1,6,7,9-tetrahydropyrazolo[4,3-d][1,3]thiazolo[3,2-a]pyridine-7-carboxylic acid]",interfere with the formation of amyloid fibrils
2,"CC(C)CC1=NN=C2C(=O)N3C(SC[C@H]3C(=O)O)C(c3ccccc3)=C12 (stereo partly drawn) [Example 37, (7R)-6,7-dihydro-3-isobutyl-4-phenyl-pyrazolo[4,5-d]thiazolo[3,2-a]pyridine-9-one-7-carboxylic acid]",interfere with the formation of amyloid fibrils
3,"COc1ccc(C2=NN=C3C(=O)N4C(SC[C@H]4C(=O)O)C(c4ccccc4)=C32)cc1 (stereo partly drawn) [Example 39, (7R)-6,7-dihydro-3-(4-methoxyphenyl)-4-phenyl-pyrazolo[4,5-d]thiazolo[3,2-a]pyridine-9-one-7-carboxylic acid]",interfere with the formation of amyloid fibrils
